Data published in US9271934B2, “Water dispersible glyceryl monooleate magnetic nanoparticle formulation” (Institute of Life Sciences, priority 2009, dated 2016).

What was measured:
[1] = tested on: MCF-7 (breast cancer) cell line; assay: Mitogenic (MTT) assay, antiproliferative effect in MCF-7 cells; type: cell-based
Method: The cell culture experiments were carried out in MCF-7 (breast cancer) cell line purchased from American Type Culture Collection (ATCC, Manassas, Va.) were grown in RPMI 1640 medium (Himedia Laboratories Pvt. Ltd., Mumbai, India) supplemented with 10% fetal bovine serum (Himedia Laboratories Pvt. Ltd., Mumbai, India) and 100 μg/ml penicillin G and 100 μg/ml streptomycin (Gibco BRL, Grand island, NY) at 37° C. in a humidified and 5% CO2 atmosphere (Hera Cell, Thermo Scientific, Waltham, Mass.).
(§1) To find out the cytotoxicity of the anticancer drugs, mitogenic assay was carried out. The MCF-7 cells were seeded at 5,000 per well in 96 well plate (Corning, N.Y., USA) and kept in the incubator for 24 hours for better cell attachment. […] Glyceryl monooleate (GMO) Magnetic nanoparticles (MNPs) without drug and medium were used as respective controls. The medium was changed on 2nd and 4th days following the drug treatment; no further dose of drug was added. Viability of the cells was determined at 5th day. After the specified incubation time, 10 μl MTT (Sigma) was added, and the plates were incubated for 3 hours at 37° C. in a cell culture incubator (Hera Cell, Thermo Scientific, Waltham, Mass.), following which the intracellular formazan crystals were solubilized in dimethyl sulfoxide and the color intensity was measured at 540 nm using a microplate reader (Synergy HT, BioTek Instruments, Inc., Winooski, Vt.). The antiproliferative effect of different treatments was calculated as a percentage of cell growth with respect to respective controls.
The cell culture experiments were carried out in MCF-7 (breast cancer) cell line purchased from American Type Culture Collection (ATCC, Manassas, Va.) were grown in RPMI 1640 medium (Himedia Laboratories PVT. LTD., Mumbai, India) supplemented with 10% fetal bovine serum (Himedia Laboratories Pvt. Ltd., Mumbai, India) and 100 μg/ml penicillin G and 100 μg/ml streptomycin (Gibco BRL, Grand island, NY) at 37° C. in a humidified and 5% CO2— atmosphere (Hera Cell, Thermo Scientific, Waltham, Mass.).
as §1, with “GMO-MNPs” for “Glyceryl monooleate (GMO) Magnetic nanoparticles (MNPs)”

[2] = higher doses; cited from earlier work
human erythrocytes = details: pluronic used as emulsifying agent for amphotericin-B; cited from earlier work
[3] = MCF-7, MTT day 5, highest concentration of the range (1000 ng/ml, printed for paclitaxel)
[4] = MCF-7, MTT day 5, lowest concentration of the range (1 ng/ml, printed for paclitaxel)

Row | Molecule | cell viability percentage [1, 3] | cell viability percentage [1, 4] [%] | IC50 ([1]; Homo sapiens, MCF7, 120 h, MCF-7 cells, MTT assay on day 5, medium changed on days 2 and 4) [µg/mL] | effect on cholesterol and triglycerides in the blood plasma [2] | concentration with detectable cell lysis of human erythrocytes (human erythrocytes) [ng/mL]
1 | CC(=O)O[C@H]1C(=O)[C@@]2(C)[C@H]([C@H](OC(=O)c3ccccc3)[C@]3(O)C[C@H](OC(=O)[C@H](O)[C@@H](NC(=O)c4ccccc4)c4ccccc4)C(C)=C1C3(C)C)[C@]1(OC(C)=O)CO[C@@H]1C[C@@H]2O [paclitaxel, Paclitaxel] | about 30% | 95 |  |  | 
2 | CO[C@H]1C[C@@H]2CC[C@@H](C)[C@@](O)(O2)C(=O)C(=O)N2CCCC[C@H]2C(=O)O[C@H]([C@H](C)C[C@@H]2CC[C@@H](O)[C@H](OC)C2)CC(=O)[C@H](C)/C=C(\C)[C@@H](O)[C@@H](OC)C(=O)[C@H](C)C[C@H](C)/C=C/C=C/C=C/1C [rapamycin] | 37% | 65 | 0.0588 |  | 
3 | Pluronic F-127 |  |  |  | elevation of cholesterol and triglycerides in the blood plasma | 16000
